In brackets after ≈: the same amount, converted by molar mass. Read-outs that look alike come from different tables or passages of the source. Where a SMILES comes first, the peptide text is derived from it. The star is where a group is joined. Decanoyl = CCCCCCCCCC(=O)*; Octanoyl = CCCCCCCC(=O)*
How the values were obtained:
Format in all cases: cell-based
[1] = test system: Pseudomonas aeruginosa (ATCC 9027); details: ATCC 9027, 24 h
[2] = test system: Pseudomonas aeruginosa (ATCC 9027); details: for MBC Pseudomonas aeruginosa: subculture on Mueller-Hinton II Agar, 24 h 37°C
Description: (§1) The minimum inhibitory concentration (MIC), minimum bactericidal concentration (MBC) and minimum fungicidal concentration (MFC) were determined according to the procedure recommended by the Clinical Laboratory Standards Institute (CLSI). The following reference strains were tested: Gram-negative E. coli (ATCC 25922), K. pneumoniae (ATCC 700603), P. vulgaris (PCM 2668), P. aeruginosa (ATCC 9027), Gram-positive S. aureus (ATCC 25923), S. epidermidis (PCM 2118), B. subtilis (ATCC 6633), E. faecalis (ATCC 29212) and fungi C. albicans (ATCC 10231), C. tropicalis (PCM 2681), and A. brasiliensis (ATCC 16404). All the microorganisms were from the Polish Collection of Microorganisms (Wroclaw, Poland). MIC was determined using a microbroth dilution method with Mueller-Hinton (MH) broth for bacteria and Sabouraud Dextrose broth for fungi (Becton Dickinson, Le Pont de Claix, France). An initial inoculum of 10^5 cfu/mL was used for bacteria and 10^3 cfu/mL for fungi. Polypropylene 96-well plates (Kartell, Noviglio, Italy) were incubated for 18 h at 37°C for bacteria and for 48 h at 25°C for the tested fungi. MIC (μg/mL) was taken as the lowest concentration of the lipopeptide, at which the observable growth was inhibited. […] The experiments were performed in triplicate on three different days.

[3] = test system: Staphylococcus aureus (ATCC 25923); details: ATCC 25923, TFA salt; for MBC Staphylococcus aureus: MIC wells subcultured on Mueller-Hinton II Agar, 24 h 37°C, triplicate; for MIC Staphylococcus aureus: Mueller-Hinton broth, 10^5 cfu/mL, 18 h 37°C, triplicate on three days
Description: as §1

[4] = test system: Bacillus subtilis (ATCC 6633)
Description: as §1

[5] = test system: Staphylococcus epidermidis (PCM 2118)
Description: as §1

[6] = test system: Proteus vulgaris (PCM 2668); details: PCM 2668, TFA salt, triplicate; for MIC Proteus vulgaris: Mueller-Hinton broth, 10^5 cfu/mL, 18 h 37°C; for MBC Proteus vulgaris: subculture on Mueller-Hinton II Agar, 24 h 37°C
Description: as §1

[7] = test system: Enterococcus faecalis (ATCC 29212); details: for MBC Enterococcus fecalis: subculture on Mueller-Hinton II Agar, 24 h 37°C
Description: as §1

[8] = test system: Escherichia coli (ATCC 25922); details: ATCC 25922, TFA salt, triplicate; for MIC Escherichia coli: Mueller-Hinton broth, 10^5 cfu/mL, 18 h 37°C; for MBC Escherichia coli: subculture on Mueller-Hinton II Agar, 24 h 37°C
Description: as §1

[9] = test system: Candida albicans (ATCC 10231); details: ATCC 10231, 48 h
Description: as §1

[10] = test system: Klebsiella pneumoniae (ATCC 700603)
Description: as §1

[11] = test system: Candida tropicalis (PCM 2681); details: PCM 2681, 48 h
Description: as §1

[12] = test system: Aspergillus brasiliensis (ATCC 16404); details: ATCC 16404, 48 h
Description: as §1

[13] = ATCC 29212, TFA salt, triplicate
[14] = ATCC 9027, TFA salt, Mueller-Hinton broth, 10^5 cfu/mL, 18 h 37°C, triplicate
[15] = ATCC 9027, TFA salt, triplicate
[16] = ATCC 6633, TFA salt, Mueller-Hinton broth, 10^5 cfu/mL, 18 h 37°C, triplicate
[17] = ATCC 6633, TFA salt, subculture on Mueller-Hinton II Agar, 24 h 37°C, triplicate
[18] = PCM 2118, TFA salt, Mueller-Hinton broth, 10^5 cfu/mL, 18 h 37°C, triplicate
[19] = PCM 2118, TFA salt, subculture on Mueller-Hinton II Agar, 24 h 37°C, triplicate
[20] = ATCC 29212, TFA salt, Mueller-Hinton broth, 10^5 cfu/mL, 18 h 37°C, triplicate
[21] = ATCC 700603, TFA salt, Mueller-Hinton broth, 10^5 cfu/mL, 18 h 37°C, triplicate
[22] = ATCC 700603, TFA salt, subculture on Mueller-Hinton II Agar, 24 h 37°C, triplicate

Compound | MBC Staphylococcus aureus [3] | MIC Staphylococcus aureus [3] | MIC Bacillus subtillis ([4]; ATCC 6633, 18 h) | MBC Bacillus subtillis ([4]; ATCC 6633, 24 h) | MIC Proteus vulgaris [6] | MBC Proteus vulgaris [6] | MBC Enterococcus fecalis [7, 13] | MIC Escherichia coli [8] | MBC Escherichia coli [8] | MFC Candida albicans [9] | MIC Candida albicans [9] | MFC Candida tropicalis [11] | MIC Candida tropicalis [11] | MFC Aspergillus brasiliensis [12] | MIC Aspergillus brasiliensis [12] | MIC Pseudomonas aeruginosa [2, 14] | MBC Pseudomonas aeruginosa [2, 15] | MIC Enterococcus fecalis [7, 20] | MIC Klebsiella pneumoniae [10, 21] | MBC Klebsiella pneumoniae [10, 22] | further results
CCCCCCCCCC(=O)N[C@@H](CCCCN)C(=O)NCC(N)=O [C10-KG-NH2] (Decanoyl-Lys-Gly-NH2) | >2000 µg/mL | >2000 µg/mL | 512 µg/mL (≈ 1440 µM) | 512 µg/mL (≈ 1440 µM) | >2000 µg/mL | >2000 µg/mL | >1000 µg/mL | >2000 µg/mL | >2000 µg/mL | 2000 µg/mL (≈ 5610 µM) | 1000 µg/mL (≈ 2800 µM) | 2000 µg/mL (≈ 5610 µM) | 1000 µg/mL (≈ 2800 µM) | 2000 µg/mL (≈ 5610 µM) | 1000 µg/mL (≈ 2800 µM) | – | – | – | – | – | MBC Pseudomonas aeruginosa [1]: 2000 µg/mL (≈ 5610 µM); MIC Pseudomonas aeruginosa ([2]; ATCC 9027, 18 h): 1000 µg/mL (≈ 2800 µM); MIC Staphylococcus epidermidis ([5]; PCM 2118, 18 h): 512 µg/mL (≈ 1440 µM); MBC Staphylococcus epidermidis ([5]; PCM 2118, 24 h): 1000 µg/mL (≈ 2800 µM); MIC Enterococcus fecalis ([7]; ATCC 29212, 18 h): 1000 µg/mL (≈ 2800 µM); MIC Klebsiella pneumoniae ([10]; ATCC 700603, 18 h): 1000 µg/mL (≈ 2800 µM); MBC Klebsiella pneumoniae ([10]; ATCC 700603, 24 h): 2000 µg/mL (≈ 5610 µM)
CCCCCCCC(=O)N[C@@H](CCCCN)C(N)=O [C8-K-NH2] | >1000 µg/mL | >1000 µg/mL | – | – | >2000 µg/mL | >2000 µg/mL | >1000 µg/mL | >1000 µg/mL | >1000 µg/mL | 1000 µg/mL (≈ 3680 µM) | 1000 µg/mL (≈ 3680 µM) | 2000 µg/mL (≈ 7370 µM) | 1000 µg/mL (≈ 3680 µM) | 1000 µg/mL (≈ 3680 µM) | 1000 µg/mL (≈ 3680 µM) | >2000 µg/mL | >2000 µg/mL | >1000 µg/mL | >1000 µg/mL | >1000 µg/mL | MIC Bacillus subtillis [4, 16]: >1000 µg/mL; MBC Bacillus subtillis [4, 17]: >1000 µg/mL; MIC Staphylococcus epidermidis [5, 18]: >1000 µg/mL; MBC Staphylococcus epidermidis [5, 19]: >1000 µg/mL
CCCCCCCC(=O)N[C@@H](CCCCN)C(=O)NCC(=O)N[C@@H](CCCCN)C(N)=O [C8-KGK-NH2] (Octanoyl-Lys-Gly-Lys-NH2) | >2000 µg/mL | >2000 µg/mL | 512 µg/mL (≈ 1120 µM) | 1000 µg/mL (≈ 2190 µM) | >2000 µg/mL | >2000 µg/mL | >2000 µg/mL | >2000 µg/mL | >2000 µg/mL | 2000 µg/mL (≈ 4380 µM) | 2000 µg/mL (≈ 4380 µM) | 2000 µg/mL (≈ 4380 µM) | 2000 µg/mL (≈ 4380 µM) | 2000 µg/mL (≈ 4380 µM) | 2000 µg/mL (≈ 4380 µM) | >2000 µg/mL | >2000 µg/mL | >2000 µg/mL | >2000 µg/mL | >2000 µg/mL | MIC Staphylococcus epidermidis ([5]; PCM 2118, 18 h): 256 µg/mL (≈ 561 µM); MBC Staphylococcus epidermidis ([5]; PCM 2118, 24 h): 1000 µg/mL (≈ 2190 µM)
CCCCCCCC(=O)N[C@@H](CCCCN)C(=O)N[C@@H](CCCCN)C(N)=O [C8-KK-NH2] | >1000 µg/mL | >1000 µg/mL | – | – | >2000 µg/mL | >2000 µg/mL | >1000 µg/mL | >1000 µg/mL | >1000 µg/mL | 1000 µg/mL (≈ 2500 µM) | 1000 µg/mL (≈ 2500 µM) | 1000 µg/mL (≈ 2500 µM) | 1000 µg/mL (≈ 2500 µM) | 1000 µg/mL (≈ 2500 µM) | 1000 µg/mL (≈ 2500 µM) | >2000 µg/mL | >2000 µg/mL | >1000 µg/mL | >1000 µg/mL | >1000 µg/mL | MIC Bacillus subtillis [4, 16]: >1000 µg/mL; MBC Bacillus subtillis [4, 17]: >1000 µg/mL; MIC Staphylococcus epidermidis [5, 18]: >1000 µg/mL; MBC Staphylococcus epidermidis [5, 19]: >1000 µg/mL
CCCCCCCCCC(=O)N[C@@H](CCCCN)C(=O)N[C@@H](CCCCN)C(=O)N[C@@H](CCCCN)C(N)=O [C10-KKK-NH2] | >2000 µg/mL | >2000 µg/mL | 128 µg/mL (≈ 230 µM) | 256 µg/mL (≈ 461 µM) | >2000 µg/mL | >2000 µg/mL | >2000 µg/mL | >2000 µg/mL | >2000 µg/mL | 2000 µg/mL (≈ 3600 µM) | 2000 µg/mL (≈ 3600 µM) | 2000 µg/mL (≈ 3600 µM) | 2000 µg/mL (≈ 3600 µM) | 2000 µg/mL (≈ 3600 µM) | 1000 µg/mL (≈ 1800 µM) | >2000 µg/mL | >2000 µg/mL | >2000 µg/mL | >2000 µg/mL | >2000 µg/mL | MIC Staphylococcus epidermidis ([5]; PCM 2118, 18 h): 128 µg/mL (≈ 230 µM); MBC Staphylococcus epidermidis ([5]; PCM 2118, 24 h): 256 µg/mL (≈ 461 µM)
